# Patent publication US20250282785A1, “PYRROLIDINONE DERIVATIVES AS INHIBITORS OF NF KAPPA B INDUCING KINASE” (priority 2022, published 2025)
# Key:
# [1] = molecular target: Recombinant Human NF-Kappab-Inducing Kinase (NIK/MAP3K14) (Homo sapiens, UniProt Q99558); experiment: Inhibition of auto-phosphorylation of recombinant human NIK/MAP3K14 (AlphaScreen); format: biochemical; details: NIK/MAP3K14 auto-phosphorylation, 5 microM ATP, 1 nM enzyme, 2 h at 25° C.; average of values; read-out: Assay 1 IC50
# Description: Biological Assay 1: Inhibition of Auto-Phosphorylation of Recombinant Human NF-Kappab-Inducing Kinase (NIK/MAP3K14) Activity (AlphaScreen®)
# NIK/MAP3K14 auto-phosphorylation activity was measured using the AlphaScreen® ((αscreen) format (Perkin ElmeR). All compounds tested were dissolved in dimethyl sulfoxide (DMSO) and further dilutions were made in assay buffer. Final DMSO concentration was 0.7% (v/v) in assays. Assay buffer was 50 mM Tris pH 7.5 containing 1 mM EGTA (ethylene glycol tetraacetic acid), 1 mM DTT (dithiothreitol), 0.1 mM Na3VO4, 5 mM MgCl2, 0.01% Tween® 20. Assays were carried out in 384 well Proxiplates (Perkin ElmeR). Incubations consisted of compound, 5 microM Adenosine-5′-triphosphate (ATP), and 1 nM NIK/MAP3K14. Incubations were initiated by addition of GST-tagged NIK/MAP3K14 enzyme, carried out for 2 h at 25° C. and terminated by addition of stop buffer containing anti-phospho-IKK Ser176/180 antibody. Protein A Acceptor and Glutathione-donor beads were added before reading using an EnVision® Multilabel Plate Reader (Perkin ElmeR). Signal obtained in the wells was normalized using high (full enzyme activity, 0.7% DMSO) and low controls (no enzyme activity, 0.7% DMSO, no ATP). IC50's were determined by fitting a sigmoidal curve to % inhibition of control versus Log10 compound concentration.
# [2] = system: p-IKKα levels in L363 (NIK translocated multiple myeloma) cells; experiment: Effect of compounds on p-IKKα levels in L363 cells (AlphaLISA SureFire Ultra); format: cell-based; details: Homo sapiens, L-363; L363 cells, BAFF stimulated, MG132, 6 h; average of values; read-out: Assay 2 IC50
# Description: Biological Assay 2: Effect of Compounds on p-IKKα Levels in L363 (NIK Translocated Multiple Myeloma) Cells
# All compounds tested were dissolved and serially diluted in DMSO, 1:3 dilution for 11 points in an Echo compatible plate. 100% DMSO is added to columns 12 and 24 of the plate to serve as high and low signal controls. This compound plate was used to spot 20 nl of compound or DMSO into a Greiner 384 well TC plate (781080). Final DMSO concentration was […] (v/v) in cell assays. Human L363 cells (ATCC) were cultured in RPMI 1640 medium supplemented with GlutaMax, non-essential amino acids, sodium pyruvate and 10% fetal bovine serum. Cells were routinely maintained at densities of 0.2×10^6 cells per ml −2×10^6 cells per ml at 37° C. in a humidified 5% CO2 atmosphere incubator. Cells were passaged twice a week splitting back to obtain the low density. The day before the assay, cells were washed twice in HBSS, resuspended in DMEM+0.5% IgG and protease free BSA (Jackson Immuno Research Laboratories), +/−250 ng/ml recombinant human B-cell activating factor (BAFF/BLyS/TNFSF13B) and incubated overnight at 37° C. in a humidified 5% CO2 atmosphere (bulk stimulation with or without BAFF). The next day, cell concentration was adjusted to 1×10^7 cells/ml in DMEM+/−250 ng/ml BAFF+/−10 uM MG132 and plated at 10 ul/well into compound or DMSO spotted 384 well TC plates. Seeded cells were incubated at 37° C. in a humidified 5% CO2 atmosphere for 6 h. After 6 h, plates were removed from the incubator and cell lysis was achieved by the addition of 2.5 μl 5× lysis buffer containing protease and phosphatase inhibitors, followed by shaking on a plate shaker at room temperature for 15 min. At the end of this incubation, lysed cells were sequentially treated and incubated with acceptor and donor bead mixes according to the manufacturer's protocol for a 1 plate/2-incubation suspension cell assay (AlphaLISA SureFire Ultra p-IKKα (Ser 176/180) Assay Kit (Perkin ElmeR). Plates were read using an EnVision® Multilabel Plate Reader (Perkin ElmeR). Within an experiment, a concentration response curve for each compound was run in duplicate. Signal obtained in the test wells was normalized using high signal (BAFF stimulated cells, DMSO, MG132) and low signal (unstimulated cells, DMSO) controls. To determine the IC50, a sigmoidal curve was fitted to the plot of % inhibition versus Log10 compound concentration.
# Chain of Recombinant Human NF-Kappab-Inducing Kinase (NIK/MAP3K14) (Q99558 whole entry): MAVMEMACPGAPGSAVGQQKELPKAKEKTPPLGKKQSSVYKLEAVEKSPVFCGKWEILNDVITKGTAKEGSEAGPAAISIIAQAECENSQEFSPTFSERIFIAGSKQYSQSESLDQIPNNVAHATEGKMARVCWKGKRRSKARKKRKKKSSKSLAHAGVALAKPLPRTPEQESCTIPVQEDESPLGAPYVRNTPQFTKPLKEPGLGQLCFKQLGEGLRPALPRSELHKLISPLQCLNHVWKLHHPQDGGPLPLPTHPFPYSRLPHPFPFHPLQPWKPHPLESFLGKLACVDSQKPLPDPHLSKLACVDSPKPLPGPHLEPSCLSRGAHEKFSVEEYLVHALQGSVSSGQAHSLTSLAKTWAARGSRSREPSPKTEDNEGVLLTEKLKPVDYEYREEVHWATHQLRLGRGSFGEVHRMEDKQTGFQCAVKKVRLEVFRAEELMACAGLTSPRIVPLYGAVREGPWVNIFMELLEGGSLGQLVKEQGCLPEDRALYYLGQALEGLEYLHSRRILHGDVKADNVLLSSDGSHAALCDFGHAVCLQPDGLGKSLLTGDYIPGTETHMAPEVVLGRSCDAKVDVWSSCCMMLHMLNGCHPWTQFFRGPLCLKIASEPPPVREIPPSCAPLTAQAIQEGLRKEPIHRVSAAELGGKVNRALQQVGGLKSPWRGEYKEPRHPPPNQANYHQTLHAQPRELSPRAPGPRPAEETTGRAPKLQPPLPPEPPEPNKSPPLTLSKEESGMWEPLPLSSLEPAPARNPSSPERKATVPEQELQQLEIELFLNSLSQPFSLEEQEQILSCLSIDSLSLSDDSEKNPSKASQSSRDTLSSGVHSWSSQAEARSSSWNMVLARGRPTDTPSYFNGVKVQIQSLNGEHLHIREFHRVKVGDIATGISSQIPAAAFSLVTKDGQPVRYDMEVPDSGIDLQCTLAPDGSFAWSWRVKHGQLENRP
smiles,measurement,setting,value
"CN1CC[C@@](O)(c2cc(-c3cccc(-c4nc(C(N)=O)c5n4CCN(Cc4ccccc4)C5)c3)no2)C1=O [Example 234, (R)-7-Benzyl-3-(3-(5-(3-hydroxy-1-methyl-2-oxopyrrolidin-3-yl)isoxazol-3-yl)phenyl)-5,6,7,8-tetrahydroimidazo[1,5-a]pyrazine-1-carboxamide]",IC50,[1],> 501 nM
same,IC50,[2],> 501 nM
"CN1CC[C@@](O)(c2cc([C@H]3CCCN(c4ccc5ncnc(N)c5n4)C3)no2)C1=O (single isomer, unassigned) [Example 203]",IC50,[1],< 100 nM
same,IC50,[2],> 501 nM
"CN1CC[C@@](O)(c2cc(-c3cccc(-c4cccc(C(N)=O)n4)c3)no2)C1=O [Example 148, (R)-6-(3-(5-(3-Hydroxy-1-methyl-2-oxopyrrolidin-3-yl)isoxazol-3-yl)phenyl)picolinamide]",IC50,[1],< 100 nM
same,IC50,[2],> 501 nM
"CN1CC[C@@](O)(c2cc(-c3cc(-c4cc(C5CC5)c(N)c(C(N)=O)n4)ccc3F)no2)C1=O [Example 244, (R)-3-Amino-4-cyclopropyl-6-(4-fluoro-3-(5-(3-hydroxy-1-methyl-2-oxopyrrolidin-3-yl)isoxazol-3-yl)phenyl)picolinamide]",IC50,[1],< 100 nM
same,IC50,[2],> 501 nM
"CNc1sc(-c2cccc(-c3cc([C@]4(O)CCN(C)C4=O)on3)c2)nc1C(N)=O [Example 209, (R)-2-(3-(5-(3-Hydroxy-1-methyl-2-oxopyrrolidin-3-yl)isoxazol-3-yl)phenyl)-5-(methylamino)thiazole-4-carboxamide]",IC50,[1],< 100 nM
same,IC50,[2],< 100 nM
"CN1CC[C@@](O)(c2cc(-c3cccc(-c4cc(N5CC(F)(F)C5)cc(C(N)=O)n4)c3)no2)C1=O [Example 100, (R)-4-(3,3-Difluoroazetidin-1-yl)-6-(3-(5-(3-hydroxy-1-methyl-2-oxopyrrolidin-3-yl)isoxazol-3-yl)phenyl)picolinamide]",IC50,[1],< 100 nM
same,IC50,[2],> 501 nM
"CN1C(=O)[C@](O)(c2cc(-c3cccc(-c4cc(C5CC5)c(N)c(C(N)=O)n4)c3)no2)C[C@H]1C(F)(F)F [Example 178, 3-Amino-4-cyclopropyl-6-(3-(5-((3R,5S)-3-hydroxy-1-methyl-2-oxo-5-(trifluoromethyl)pyrrolidin-3-yl)isoxazol-3-yl)phenyl)picolinamide]",IC50,[1],< 100 nM
same,IC50,[2],> 501 nM
"COc1cc(-c2cc(-c3cc([C@]4(O)CCN(C)C4=O)on3)ccc2F)nc2c(N)ncnc12 [Example 120, (R)-3-(3-(3-(4-Amino-8-methoxypyrido[3,2-d]pyrimidin-6-yl)-4-fluorophenyl)isoxazol-5-yl)-3-hydroxy-1-methylpyrrolidin-2-one]",IC50,[1],< 100 nM
same,IC50,[2],> 501 nM
"COc1ccc2c(c1)c(C(N)=O)nn2-c1cccc(-c2cc([C@]3(O)CCN(C)C3=O)on2)c1 [Example 103, (R)-1-(3-(5-(3-Hydroxy-1-methyl-2-oxopyrrolidin-3-yl)isoxazol-3-yl)phenyl)-5-methoxy-1H-indazole-3-carboxamide]",IC50,[1],< 100 nM
same,IC50,[2],< 100 nM
"Cc1sc(-c2cccc(-c3cc([C@]4(O)CCN(C)C4=O)on3)c2)nc1C(N)=O [Example 217, (R)-2-(3-(5-(3-Hydroxy-1-methyl-2-oxopyrrolidin-3-yl)isoxazol-3-yl)phenyl)-5-methylthiazole-4-carboxamide]",IC50,[1],< 100 nM
same,IC50,[2],100 to 500 nM
"Cc1cc(-c2cccc(-c3cc([C@]4(O)CCN(C)C4=O)on3)c2)nc2c(N)ncnc12 [Example 26, (R)-3-(3-(3-(4-Amino-8-methylpyrido[3,2-d]pyrimidin-6-yl)phenyl)isoxazol-5-yl)-3-hydroxy-1-methylpyrrolidin-2-one]",IC50,[1],< 100 nM
same,IC50,[2],< 100 nM
"CN1CC[C@@](O)(c2cc(-c3cccc(-c4cccc(C(N)=O)c4)c3)no2)C1=O [Example 157, (R)-3′-(5-(3-Hydroxy-1-methyl-2-oxopyrrolidin-3-yl)isoxazol-3-yl)-[1,1′-biphenyl]-3-carboxamide]",IC50,[1],> 501 nM
same,IC50,[2],> 501 nM
"Cc1ccc(-c2cc([C@]3(O)CCN(C)C3=O)on2)cc1-c1nc2c(N)ncnc2s1 [Example 12, (R)-3-(3-(3-(7-Aminothiazolo[5,4-d]pyrimidin-2-yl)-4-methylphenyl)isoxazol-5-yl)-3-hydroxy-1-methylpyrrolidin-2-one]",IC50,[1],< 100 nM
same,IC50,[2],> 501 nM
"CN1CC[C@@](O)(c2cc(-c3cccc(-n4cc(C(N)=O)cn4)n3)no2)C1=O [Example 194, (R)-1-(6-(5-(3-Hydroxy-1-methyl-2-oxopyrrolidin-3-yl)isoxazol-3-yl)pyridin-2-yl)-1H-pyrazole-4-carboxamide]",IC50,[1],> 501 nM
same,IC50,[2],> 501 nM
"CCc1sc(-c2cccc(-c3cc([C@]4(O)CCN(C)C4=O)on3)c2)nc1C(N)=O [Example 218, (R)-5-Ethyl-2-(3-(5-(3-hydroxy-1-methyl-2-oxopyrrolidin-3-yl)isoxazol-3-yl)phenyl)thiazole-4-carboxamide]",IC50,[1],< 100 nM
same,IC50,[2],100 to 500 nM
"CN1CC[C@@](O)(c2cc(-c3cccc(-c4cc(C(F)(F)F)cc(C(N)=O)n4)c3)no2)C1=O [Example 91, (R)-6-(3-(5-(3-Hydroxy-1-methyl-2-oxopyrrolidin-3-yl)isoxazol-3-yl)phenyl)-4-(trifluoromethyl)picolinamide]",IC50,[1],< 100 nM
same,IC50,[2],100 to 500 nM
"COc1cc(-c2cc(-c3cc([C@]4(O)CCN(C)C4=O)on3)c(F)cc2F)nc2c(N)ncnc12 [Example 113, (R)-3-(3-(5-(4-Amino-8-methoxypyrido[3,2-d]pyrimidin-6-yl)-2,4-difluorophenyl)isoxazol-5-yl)-3-hydroxy-1-methylpyrrolidin-2-one]",IC50,[1],< 100 nM
same,IC50,[2],> 501 nM
"CN1CC[C@@](O)(c2cc(-c3cccc(-c4nc5c(c(C(N)=O)n4)CCCC5)c3)no2)C1=O [Example 125, (R)-2-(3-(5-(3-Hydroxy-1-methyl-2-oxopyrrolidin-3-yl)isoxazol-3-yl)phenyl)-5,6,7,8-tetrahydroquinazoline-4-carboxamide]",IC50,[1],< 100 nM
same,IC50,[2],> 501 nM
"CN1CC[C@@](O)(c2cc(-c3cccc(-c4nc(C(N)=O)c5ccc(F)cc5n4)c3)no2)C1=O [Example 158, (R)-7-Fluoro-2-(3-(5-(3-hydroxy-1-methyl-2-oxopyrrolidin-3-yl)isoxazol-3-yl)phenyl)quinazoline-4-carboxamide]",IC50,[1],< 100 nM
same,IC50,[2],> 501 nM
"Cc1nc(-c2cc(-c3cc([C@@]4(O)C(=O)N(C)CC4(F)F)on3)cc(F)c2F)nc2c(N)ncnc12 [Example 123, (R)-3-(3-(3-(8-amino-4-methylpyrimido[5,4-d]pyrimidin-2-yl)-4,5-difluorophenyl)isoxazol-5-yl)-4,4-difluoro-3-hydroxy-1-methylpyrrolidin-2-one]",IC50,[1],< 100 nM
same,IC50,[2],100 to 500 nM
"CN1CC[C@@](O)(c2cc(-c3cccc(-c4nc5c(c(C(N)=O)n4)C4CCC(C5)O4)c3)[nH]n2)C1=O (stereo in doubt) [Example 174, (5R,8S)-2-(3-(5-((R)-3-Hydroxy-1-methyl-2-oxopyrrolidin-3-yl)-1H-pyrazol-3-yl)phenyl)-6,7,8,9-tetrahydro-5H-5,8-epoxycyclohepta[d]pyrimidine-4-carboxamide]",IC50,[1],100 to 500 nM
same,IC50,[2],> 501 nM
